Laboratory results published in US4308380A, “2-Lower alkyl-2 or 3-cephem-4-carboxylic acid derivatives” (Fujisawa Pharmaceutical Co., Ltd., priority 1973, dated 1981).
Converted amounts (≈) assume the structure as drawn. Like-named read-outs stand apart in the source and are kept apart here.

Columns and labels:
Format in all cases: cell-based
[1] = test system: Staphylococcus aureus 206; experiment: in vitro antimicrobial activity, two-fold agar plate dilution method, S. aureus 206; conditions: Table 1, S. aureus 206, 37° C., 20 hours, read-out: minimum inhibitory concentration (MIC)
Description: (§1) The in vitro tests of antimicrobial activity of the compared compounds were determined by the two-fold agar plate dilution method described as follows: […]

[2] = test system: Staphylococcus aureus 213; experiment: in vitro antimicrobial activity, two-fold agar plate dilution method, S. aureus 213; conditions: Table 1, S. aureus 213, 37° C., 20 hours, read-out: minimum inhibitory concentration (MIC)
Description: as §1

[3] = test system: Staphylococcus aureus 278; experiment: in vitro antimicrobial activity, two-fold agar plate dilution method, S. aureus 278; conditions: Table 1, S. aureus 278, 37° C., 20 hours, read-out: minimum inhibitory concentration (MIC)
Description: as §1

[4] = test system: Staphylococcus aureus 226; experiment: in vitro antimicrobial activity, two-fold agar plate dilution method, S. aureus 226; conditions: Table 1, S. aureus 226, 37° C., 20 hours, read-out: minimum inhibitory concentration (MIC)
Description: as §1

[5] = test system: Bacillus subtilis ATCC-6633; experiment: in vitro antimicrobial activity, two-fold agar-plate dilution method, B. subtilis ATCC-6633; conditions: 20 hours
Description: (§2) In vitro antimicrobial activity was determined by the two-fold agar-plate dilution method as described below.
(§3) One loopful of an overnight culture of each test strain in Trypticase-soy broth (10^8 viable cells per ml) was streaked on heart infusion agar (HI-agar) containing graded concentration of antibiotics, and the minimum inhibitory concentration (MIC) was expressed in terms of meg/ml after incubation at 37° C. for 20 hours.
(§4) The data in Table 1 below present a comparison between the 2-(C1 -C6 alkyl)-cephem compounds of the present invention and known cephem compounds structurally analogous to the present compounds, differing only by alkyl substitution in the 3-position. The in vitro tests of antimicrobial activity of the compared compounds were determined by the two-fold agar plate dilution method described as follows:
as §3, with “(HI sugar)” for “(HI-agar)”, “mcg/ml” for “meg/ml”

[6] = test system: Staphylococcus aureus 277; experiment: in vitro antimicrobial activity, two-fold agar plate dilution method, S. aureus 277; conditions: Table 1, S. aureus 277, 37° C., 20 hours, read-out: minimum inhibitory concentration (MIC)
Description: as §1

[7] = test system: Staphylococcus aureus 209 P JC-1; experiment: in vitro antimicrobial activity, two-fold agar-plate dilution method, S. aureus 209 P JC-1; conditions: 20 hours
Description: as §2, §3, §4
as §3, with “(HI sugar)” for “(HI-agar)”, “mcg/ml” for “meg/ml”

[8] = ATCC6633, B. subtilis ATCC-6633, 37° C., HI-agar, read-out: MIC
[9] = ATCC6633, Table 1, B. subtilis ATCC-6633, 37° C., read-out: minimum inhibitory concentration (MIC)
[10] = 209PJC1, Table 1, S. aureus 209 P JC-1, 37° C., read-out: minimum inhibitory concentration (MIC)
[11] = S. aureus 209-P JC-1, 37° C., HI-agar, read-out: MIC

CC1C=C(C(=O)O)N2C(=O)C(NC(=O)C(NC(=O)CSc3nncs3)c3ccccc3)[C@H]2S1 (stereo partly drawn) [Applicants' compound (1), 2-Methyl-7-[N-[2-(1,3,4-thiadiazol-2-ylthio)acetyl]phenylglycyl]amino-3-cephem-4-carboxylic acid]
MIC [1]: 3.13 µg/mL (≈ 6.19 µM)
MIC [2]: 3.13 µg/mL (≈ 6.19 µM)
MIC [3]: 3.13 µg/mL (≈ 6.19 µM)
MIC [4]: 1.56 µg/mL (≈ 3.09 µM)
MIC [5, 8]: 3.13 µg/mL (≈ 6.19 µM)
MIC [5, 9]: 3.13 µg/mL (≈ 6.19 µM)
MIC [6]: 12.5 µg/mL (≈ 24.7 µM)
MIC [7, 10]: 1.56 µg/mL (≈ 3.09 µM)
MIC [7, 11]: 1.56 µg/mL (≈ 3.09 µM)

CC1C=C(C(=O)O)N2C(=O)C(NC(=O)C(O)c3cccs3)[C@H]2S1 (stereo partly drawn) [Applicants' compound (2), 2-Methyl-7-[2-hydroxy-2-(2-thienyl)acetamido]-3-cephem-4-carboxylic acid]
MIC [1]: 0.78 µg/mL (≈ 2.2 µM)
MIC [2]: 3.13 µg/mL (≈ 8.83 µM)
MIC [3]: 3.13 µg/mL (≈ 8.83 µM)
MIC [4]: 3.13 µg/mL (≈ 8.83 µM)
MIC [5, 8]: 0.78 µg/mL (≈ 2.2 µM)
MIC [5, 9]: 0.78 µg/mL (≈ 2.2 µM)
MIC [6]: 3.13 µg/mL (≈ 8.83 µM)
MIC [7, 10]: 0.78 µg/mL (≈ 2.2 µM)
MIC [7, 11]: 0.78 µg/mL (≈ 2.2 µM)

CC1C=C(C(=O)O)N2C(=O)C(NC(=O)C(C(=O)Oc3ccc4c(c3)CCC4)c3ccccc3)[C@H]2S1 (stereo partly drawn) [Applicants' compound (3), 2-Methyl-7-[2-(5-indanyloxy)carbonyl-2-phenylacetamido]-3-cephem-4-carboxylic acid]
MIC [1]: 0.39 µg/mL (≈ 0.792 µM)
MIC [2]: 0.39 µg/mL (≈ 0.792 µM)
MIC [3]: 0.39 µg/mL (≈ 0.792 µM)
MIC [4]: 0.2 µg/mL (≈ 0.406 µM)
MIC [5, 8]: 6.25 µg/mL (≈ 12.7 µM)
MIC [5, 9]: 6.25 µg/mL (≈ 12.7 µM)
MIC [6]: 0.78 µg/mL (≈ 1.58 µM)
MIC [7, 10]: 1.56 µg/mL (≈ 3.17 µM)
MIC [7, 11]: 1.56 µg/mL (≈ 3.17 µM)

CC1C=C(C(=O)O)N2C(=O)C(NC(=O)C(OC(=O)c3ccncc3)c3ccccc3)[C@H]2S1 (stereo partly drawn) [Applicants' compound (4), 2-Methyl-7-(2-isonicotinoyloxy-2-phenylacetamido)-3-cephem-4-carboxylicacid]
MIC [1]: 0.78 µg/mL (≈ 1.72 µM)
MIC [2]: 1.56 µg/mL (≈ 3.44 µM)
MIC [3]: 1.56 µg/mL (≈ 3.44 µM)
MIC [4]: 0.78 µg/mL (≈ 1.72 µM)
MIC [5, 8]: 0.78 µg/mL (≈ 1.72 µM)
MIC [5, 9]: 0.78 µg/mL (≈ 1.72 µM)
MIC [6]: 6.25 µg/mL (≈ 13.8 µM)
MIC [7, 10]: 0.39 µg/mL (≈ 0.86 µM)
MIC [7, 11]: 0.39 µg/mL (≈ 0.86 µM)

CC1C=C(C(=O)O)N2C(=O)C(NC(=O)Cc3cccs3)[C@H]2S1 (stereo partly drawn) [Applicants' compound (5), 2-Methyl-7-[2-(2-thienyl)acetamido]-3-cephem-4-carboxylic acid]
MIC [1]: 1.56 µg/mL (≈ 4.61 µM)
MIC [2]: 1.56 µg/mL (≈ 4.61 µM)
MIC [3]: 1.56 µg/mL (≈ 4.61 µM)
MIC [4]: 1.56 µg/mL (≈ 4.61 µM)
MIC [5, 8]: 0.39 µg/mL (≈ 1.15 µM)
MIC [5, 9]: 0.39 µg/mL (≈ 1.15 µM)
MIC [6]: 1.56 µg/mL (≈ 4.61 µM)
MIC [7, 10]: 0.78 µg/mL (≈ 2.3 µM)
MIC [7, 11]: 0.78 µg/mL (≈ 2.3 µM)

CC1C=C(C(=O)O)N2C(=O)C(NC(=O)Cc3cccc(Cl)c3)[C@H]2S1 (stereo partly drawn) [Applicants' compound (6), 2-Methyl-7-[2-(3-chlorophenyl)acetamido]-3-cephem-4-carboxylic acid]
MIC [1]: 0.39 µg/mL (≈ 1.06 µM)
MIC [2]: 0.3 µg/mL (≈ 0.818 µM)
MIC [3]: 0.39 µg/mL (≈ 1.06 µM)
MIC [4]: 0.2 µg/mL (≈ 0.545 µM)
MIC [5, 8]: 0.2 µg/mL (≈ 0.545 µM)
MIC [5, 9]: 0.2 µg/mL (≈ 0.545 µM)
MIC [6]: 0.78 µg/mL (≈ 2.13 µM)
MIC [7, 10]: 0.1 µg/mL (≈ 0.273 µM)
MIC [7, 11]: 0.1 µg/mL (≈ 0.273 µM)

CC1C=C(C(=O)O)N2C(=O)C(NC(=O)C(O)c3ccccc3)[C@H]2S1 (stereo partly drawn) [Applicants' compound (7), 2-Methyl-7-(2-hydroxy-2-phenylacetamido)-3-cephem-4-carboxylic acid]
MIC [1]: 1.56 µg/mL (≈ 4.48 µM)
MIC [2]: 1.56 µg/mL (≈ 4.48 µM)
MIC [3]: 1.56 µg/mL (≈ 4.48 µM)
MIC [4]: 1.56 µg/mL (≈ 4.48 µM)
MIC [5, 8]: 0.39 µg/mL (≈ 1.12 µM)
MIC [5, 9]: 0.39 µg/mL (≈ 1.12 µM)
MIC [6]: 6.25 µg/mL (≈ 17.9 µM)
MIC [7, 10]: 0.78 µg/mL (≈ 2.24 µM)
MIC [7, 11]: 0.78 µg/mL (≈ 2.24 µM)

CC1C=C(C(=O)O)N2C(=O)C(NC(=O)Cc3ccccc3)[C@H]2S1 (stereo partly drawn) [Applicants' compound (8), 2-Methyl-7-(2-phenylacetamido)-3-cephem-4-carboxylic acid]
MIC [1]: 1.56 µg/mL (≈ 4.69 µM)
MIC [2]: 1.56 µg/mL (≈ 4.69 µM)
MIC [3]: 1.56 µg/mL (≈ 4.69 µM)
MIC [4]: 1.56 µg/mL (≈ 4.69 µM)
MIC [5, 8]: 0.2 µg/mL (≈ 0.602 µM)
MIC [5, 9]: 0.2 µg/mL (≈ 0.602 µM)
MIC [6]: 3.13 µg/mL (≈ 9.42 µM)
MIC [7, 10]: 0.78 µg/mL (≈ 2.35 µM)
MIC [7, 11]: 0.78 µg/mL (≈ 2.35 µM)

CC1C=C(C(=O)O)N2C(=O)C(NC(=O)CSc3ccccc3)C2S1 (stereo not drawn) [Applicants' compound (9), 2-Methyl-7-(2-phenylthioacetamido)-3-cephem-4-carboxylic acid]
MIC [1]: 0.39 µg/mL (≈ 1.07 µM)
MIC [2]: 0.39 µg/mL (≈ 1.07 µM)
MIC [3]: 0.78 µg/mL (≈ 2.14 µM)
MIC [4]: 0.39 µg/mL (≈ 1.07 µM)
MIC [5, 8]: 0.2 µg/mL (≈ 0.549 µM)
MIC [5, 9]: 0.2 µg/mL (≈ 0.549 µM)
MIC [6]: 1.56 µg/mL (≈ 4.28 µM)
MIC [7, 10]: 0.2 µg/mL (≈ 0.549 µM)
MIC [7, 11]: 0.2 µg/mL (≈ 0.549 µM)
